Laboratory results reported in article PMC11556054, “Development and Synthesis of Bombesin-Based Radiopharmaceutical Precursors Modified with Knottin” (Modern Technologies in Medicine, 2024).

Experiments:
CHO-K1 culture = experiment: Binding of 6-FAM-labeled peptides to cell culture, fluorescence microscopy; format: cell-based, Chinese hamster; details: 1 μmol/L, 3 h incubation, washed with cooled phosphate buffer, ImageJ, >300 cells, negative control culture
Protocol: A fluorescent dye 6-FAM in the form of amine (Lumiprob, Russia) was used for bonding analysis. The peptides were labeled according a standard manufacturer protocol: they were dissolved in 0.1 mol/L solution of NaHCO3, 6-FAM dye was then added to the solution and incubated for 30 min at room temperature in the dark. The peptides were purified from the dye excess using alcohol precipitation method. For purification, one part of the labeled peptide solution was mixed with nine parts of the 95% ethanol cooled at –20°C. Further, the peptides were incubated for 90 min at the same temperature (–20°C). […]
(§1) 24 h before the experiment, the cultures were seeded in 24-well plates at the concentration of 100,000/well (LnCap — 150,000/well) to achieve the exponential stage. […] After the incubation, the medium with unbonded peptides was removed, the plate wells were washed with a cooled phosphate buffer and the fluorescence signal was recorded using an optical system equipped with a Nikon Ti-S microscope, DS-Qi1MC camera, S Plan Fluor ELWD 20×0.45 objective lenses, 465-495/515-555 nm filter (Nikon, Japan), and a computer with NIS-elements 4.0 software package.
The quantitative analysis of images was performed with an ImageJ program. The fluorescence signal from more than 300 cells was analyzed for each peptide. […] The fluorescence signal without peptides was registered as a control. […]

[1] = Chemical stability in 0.9% sodium chloride (HPLC chromatographic purity); format: physicochemical; details: target peak area as % of total peak area, M±SD
Protocol: The analysis of the synthesis and purity control of the commercial PSMA-617 (Huayi Isotopes, China) was performed using chromatographic system Shimadzu LC-20AD XR (Shimadzu, Japan), equipped with spectrophotometric detector SPD-20A, according to the principle of the reverse-phase chromatography with the help of Luna C18 column (Dr. Maisch, Germany) and gradient elution of acetonitrile (Criochrome, Russia) from 95 to 0% and deionized water from 0 to 100% for 40 min. Mass-spectrometric analysis was conducted on the basis of MALDI-TOF mass-spectrometry using MALDI-TOF MS system, series FLEX (Bruker Daltonics, Germany). The peptide was purified by means of a high-performance liquid chromatography system NGC Quest 10 (Bio-Rad, USA) using Bio-Gel P-4 sorbent on the Econo-Column 1×30 cm (Bio-Rad, USA).
Lutetium (^177Lu) chloride was used as a radioligand. […] The radioactivity of samples was measured with a gamma counter ISOMED 2010 (PTW, Germany). Labeling of the peptides was conducted on a Gaia/Luna complex (Elysia-Raytest, Germany). […] The system was controlled by the Clarity programs (Clarity Software, Great Britain). The labeled peptides were purified from free lutetium with the help of single-use cartridges C18 (ABX, Germany), the GAIA complex was used according to the gel-filtration principle. Radiochemical stability was evaluated using the same parameters after 24, 48, 96 and 168 h in 0.9% sodium chloride at 37°C. Chemical stability was similarly fixed in 0.9% sodium chloride as described above. Chromatographic purity was calculated as a percentage of the target substance peak area in relation to the total area of the peaks on the chromatogram taken as 100%.

PC-3 culture = experiment: Binding of 6-FAM-labeled peptides to cell culture, fluorescence microscopy; format: cell-based, human; details: 1 μmol/L, 3 h incubation, washed with cooled phosphate buffer, ImageJ, >300 cells
Protocol: (§2) A fluorescent dye 6-FAM in the form of amine (Lumiprob, Russia) was used for bonding analysis. The peptides were labeled according a standard manufacturer protocol: they were dissolved in 0.1 mol/L solution of NaHCO3, 6-FAM dye was then added to the solution and incubated for 30 min at room temperature in the dark. The peptides were purified from the dye excess using alcohol precipitation method. For purification, one part of the labeled peptide solution was mixed with nine parts of the 95% ethanol cooled at –20°C. Further, the peptides were incubated for 90 min at the same temperature (–20°C). After incubation, the cooled solution was centrifuged for 15 min at 13,000 rpm in the Allegra centrifuge (Beckman Coulter, USA). After centrifugation, the supernatant, […], was removed and dried using a vacuum concentrator (Eppendorf, Germany).
(§3) The peptides were bound to the cell cultures such as HCT-116, LnCap, PC-3, CHO-K1. The HCT-116 (human colorectal carcinoma cell line) and CHO-K1 (an epithelial cell line derived from the Chinese hamster ovary) were obtained from the Russian collection of cell cultures of vertebrate. The LnCap (PSMA-positive adenocarcinoma of the human prostate gland) and PC-3 cultures (PSMA-negative adenocarcinoma of the human prostate obtained from the bone metastases) were kindly provided by the N.N. Blokhin National Medical Research Center of Oncology (Russia). […]
as §1
(§4) The quantitative analysis of images was performed with an ImageJ program. The fluorescence signal from more than 300 cells was analyzed for each peptide. The fluorescence intensity was calculated by the following formula: total cell fluorescence = integral density – (area of the selected cell × mean fluorescence of the background indicators) as described by Khokhlova et al.. Shortly it looks like as follows: to obtain a fluorescence signal of each selected cell in the ImageJ program, the integral density parameter is taken, after that, the fluorescence of the background, equal in area to the cell size, is subtracted from this parameter. The fluorescence signal without peptides was registered as a control. The data were presented in the relative units of fluorescence.

LnCap culture = experiment: as above; format: cell-based, human; details: 1 μmol/L, 3 h incubation, washed with cooled phosphate buffer, ImageJ, >300 cells
Protocol: as §2, §3, §1, §4

HCT-116 culture = experiment: as above; format: cell-based, human; details: 1 μmol/L, 3 h incubation, washed with cooled phosphate buffer, ImageJ, >300 cells
Protocol: as §2, §3, §1, §4

[2] = Radiochemical stability of 177Lu-labeled structures in 0.9% sodium chloride (radio-HPLC); format: physicochemical; details: for radiochemical purity after 168 h: 168 h in 0.9% sodium chloride at 37°C
Protocol: Lutetium (^177Lu) chloride was used as a radioligand. […] The radioactivity of samples was measured with a gamma counter ISOMED 2010 (PTW, Germany). Labeling of the peptides was conducted on a Gaia/Luna complex (Elysia-Raytest, Germany). […] The system was controlled by the Clarity programs (Clarity Software, Great Britain). The labeled peptides were purified from free lutetium with the help of single-use cartridges C18 (ABX, Germany), the GAIA complex was used according to the gel-filtration principle.

Compound | binding to CHO-K1 culture (fluorescence signal) (CHO-K1 culture) | chemical stability (chromatographic purity) after 24 h ([1]; 24 h in 0.9% sodium chloride, 37°C) [%] | chemical stability (chromatographic purity) after 168 h ([1]; 168 h in 0.9% sodium chloride, 37°C) [%] | chemical stability (chromatographic purity), initial ([1]; initial) [%] | binding to PC-3 culture (fluorescence signal) (PC-3 culture) | binding to LnCap culture (fluorescence signal) (LnCap culture) | binding to LnCap culture (fluorescence signal) (LnCap culture; listed as PSMA- 617) | binding to HCT-116 culture (fluorescence signal) (HCT-116 culture) | radiochemical purity after 168 h ([2]; radio-HPLC, M±SD) [%] | labeling result retained (radiochromatogram, Figure 4) after 168 h ([2]; after 168 h, radiochromatogram) | radiochemical purity after 24 h ([2]; 24 h in 0.9% sodium chloride at 37°C, radio-HPLC, M±SD) [%] | radiochemical purity after 48 h ([2]; 48 h in 0.9% sodium chloride at 37°C, radio-HPLC, M±SD) [%] | radiochemical purity, initial ([2]; initial (after labeling and C18 cartridge purification), radio-HPLC with GABI detector, acetonitrile/water (0.01% TFA) gradient, M±SD) [%]
O=C(O)CC[C@H](NC(=O)N[C@@H](CCCCNC(=O)[C@H](Cc1ccc2ccccc2c1)NC(=O)[C@H]1CC[C@H](CNC(=O)CN2CCN(CC(=O)O)CCN(CC(=O)O)CCN(CC(=O)O)CC2)CC1)C(=O)O)C(=O)O [PSMA-617] | not bound | 80.6±6.7 | 42.9±3.4 | 99.1±2.6 | not bound | high degree of attachment | is binding to the LnCap culture | not bound | 9.2±0.7 | almost completely detached |  |  | 
O=C([O-])CN1CCN(CC(=O)[O-])CCN(CC(=O)NCC2CCC(C(=O)N[C@@H](Cc3ccc4ccccc4c3)C(=O)NCCCC[C@H](NC(=O)N[C@@H](CCC(=O)O)C(=O)O)C(=O)O)CC2)CCN(CC(=O)[O-])CC1.[177Lu+3] (some centres unmarked) [Lu-PSMA-617] |  |  |  |  |  |  |  |  | 9.2±0.7 |  | 39.6±4.1 | 19.7±2.9 | 99.7±3.2
